Values quoted from earlier work as cited in patent US6211152A, “Formulations for peptide release” (Peptech Limited, priority 1995, dated 2001).

Tests used:
[1] = tested on: dogs/bitches; settings: overdosing dogs/bitches
[2] = tested on: prostate cancer in rats; settings: microencapsulated form, controlled dose over 30 days, vs daily subcutaneous equivalent or double doses of free peptide

**Q.** Which “period of shut down of reproductive function” value [1] does the source give for `CC(C)C[C@H](NC(=O)[C@@H](Cc1ccc2ccccc2c1)NC(=O)[C@H](Cc1ccc(O)cc1)NC(=O)[C@H](CO)NC(=O)[C@H](Cc1c[nH]c2ccccc12)NC(=O)[C@H](Cc1c[nH]cn1)NC(=O)[C@@H]1CCC(=O)N1)C(=O)N[C@@H](CCCNC(=N)N)C(=O)N1CCC[C@H]1C(=O)NCC(N)=O` [nafarelin] here?
**A.** The value was “three to eighteen”.

**Q.** Which “suppressing serum testosterone levels and prostate tumour weight” value [2] does the source give for [D Trp^6 ] LH-RH here?
**A.** Its value is “more effective”.
